# Experimental data published in PubChem BioAssay AID179 (DTP/NCI, 2004).
# Several values for one entry are separate records, joined by “and”; a condition that tells them apart may be missing. Identical values can stand only once. Activity calls are given as the source filed them.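 The calls were made as follows: active = compounds giving half or more protection of infected cells from virus-caused growth loss, again on retest; inactive = the rest.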 Where a SMILES comes first, the peptide text is derived from it. Bridges are numbered along the chain shown (N, C = ends). Roman numbers before positions name the chains, in order.
# Test system: CEM cells HIV-1 protection, formazan growth assay
# Assay: NCI AIDS Antiviral Assay
# Conditions: for IC50: measured here: growth of uninfected CEM cells
# In short: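 CEM (human) cells, HIV-1 infected vs uninfected, 5-point dosing, formazan growth read-out. Retest threshold 50% protection.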
Compound,EC50 [µM],IC50,outcome
Cc1cccc2c1C(=O)C(C1OC(=O)c3ccccc31)C2 (centres undefined),> 100,> 100 µM,
C=CC1(C)CCC(C(C)C(=O)C(C=C(C)C)OC(C)=O)C12C(=O)Oc1ccccc1C2=O (centres undefined),> 30.9,29.5 µM,
CC1(C)CCCCCCC2CC2CCCCCC(C)(C)C1=O (centres undefined),> 200,105 µM,
NC(=O)C(c1ccccc1)N1CCCC1 (centres undefined),> 200,> 200 µM,
FC(F)(F)c1ccc2c(c1)N(CCCN1CCN(C3CC3)CC1)c1ccccc1S2,> 200,33.1 µM,
Cc1cc2c(oc(=O)c3cc(C)sc32)s1,> 42.7,> 42.7 µM,
O=C1/C(=C/c2ccc(Cl)cc2)CCCc2ccccc21,> 200,22.9 µM,
O=c1c2cc(Br)ccc2[nH]c(=S)n1-c1ccc(Br)cc1,> 45.7,> 45.7 µM,
CC1(C)OC(C(C)(C)O)C(C(C)(C)O)O1 (centres undefined),> 200,> 200 µM,
CC(C)CCCC(C)[C@H]1CC[C@H]2[C@@H]3CC[C@H]4C[C@@H](CCC=C(c5cc(Cl)c(OCc6ccc(B(O)O)cc6)c(C(=O)O)c5)c5cc(Cl)c(OCc6ccc(B(O)O)cc6)c(C(=O)O)c5)CC[C@]4(C)[C@H]3CC[C@]12C (some centres undefined),5.89,93.3 µM,
COc1ccc(C(C)(O)c2cc3ccccc3n2S(=O)(=O)c2ccccc2)cc1 (centres undefined),> 200,16.2 µM,
O=P(Oc1ccccc1)(Oc1ccccc1)N1CCOCC1,> 200,170 µM,
Nc1c(S(=O)(=O)O)cc2cc(S(=O)(=O)O)ccc2c1N=Nc1ccc(-c2ccc(N=Nc3c(N)c(S(=O)(=O)O)cc4cc(S(=O)(=O)O)ccc34)c(S(=O)(=O)O)c2)cc1,,,active
COc1ccc(/C=N/NC(=O)c2ccc(O)c(CN(C)C)c2)cc1,> 200,> 200 µM,
O=c1c(-c2ccccc2)c2oc(c1-c1ccccc1)CSCc1cccc(c1)CSC2,> 1.7,> 1.7 µM,
CC(=O)OC(Cc1ccc2ccccc2n1)(C(F)(F)F)C(F)(F)F,,,inactive
CN(C)/C=N/NC(=O)/C(C#N)=C/N(C)C,> 200,> 200 µM,
O=C1CCC2=C1C[C@@H]1CCCO[C@@H]1O2,,,inactive
CCCNC(=S)NN1C2CSC1CS2,> 178,> 178 µM,
COC(=O)c1cc(C(=CCCBr)c2cc(Cl)c(OC)c(C(=O)OC)c2)cc(Cl)c1OC,16.6,21.9 µM,
O=C1CC2(C(=O)O1)C1C(=O)OC(=O)C1C1c3ccccc3C=NN12 (centres undefined),> 692,> 692 µM,
CCOC(=O)C1C(=O)CC1(C)C (centres undefined),> 200,> 200 µM,

Compound,EC50 [µM],IC50,outcome
OC12c3ccccc3C1CCCCCC21OCCCO1 (centres undefined),> 200,> 200 µM,
CCCCNC1=C(C(=O)OCC)C(=O)CO1,> 794,447 µM,
CC(=O)OCC(OC(C)=O)C(OC(C)=O)C(OC(C)=O)C(=O)CNn1c(-c2ccccc2Cl)nc2ccccc2c1=O (centres undefined),,,inactive
COc1cc(/C=C2\CCc3ccccc3C2=O)cc(OC)c1OC,> 30.9,9.77 µM,
COc1ccc2c(c1)C1C(CO2)C(c2ccccc2)=NN1c1ccccc1 (centres undefined),> 20.4,> 20.4 µM,
CCC1=C(C(C)=O)[C@@H]2CCCCC(C(=O)OC)[C@@H]2C1=O (some centres undefined),> 200,> 200 µM,
CCOP(=O)(OCC)C(Cc1ccccc1)N=C(c1ccccc1)c1ccccc1 (centres undefined),> 200,10.7 µM,
O=C1OC(c2ccccc2)(c2ccccc2)c2ccc3ccc(F)cc3c21,,,inactive
c1cc2nnc1SCCSCCCSCCS2,> 200,182 µM,
Cc1ccsc1/C=N/NC1=NCCN1,> 200,> 100 µM,
COP(=O)(OC)C(Cc1cn(C(C)=O)c2ccccc12)C(=O)O (centres undefined),> 200,> 200 µM,
C/C(=C/c1cc(=O)n(C)c2ccccc12)[N+](=O)[O-],> 200,0.832 µM,
Cc1ccc(C)c(NC(=O)C(=O)CC(=O)c2cccc3ccccc23)c1,> 105,> 105 µM,
CC(C)CCC[C@@H](C)[C@H]1CC[C@H]2[C@@H]3CC=C4CC(OC(=O)OC5CCC6(C)CC7C=CC6(OO7)C5(C)C)CC[C@]4(C)[C@H]3CC[C@]12C (some centres undefined),> 100,> 100 µM,
C=CC(C)(O)CNc1ccccc1 (centres undefined),> 204,> 204 µM,
N=C(N)SCCCON,> 200,> 200 µM,
NCCCCNC(c1ccccc1)C(O)c1ccccc1 (centres undefined),,,inactive
CC1CN2CCc3c([nH]c4ccccc34)C2C[C@@H]1CC(=O)N(C)C (some centres undefined),> 191,> 191 µM,
N=c1ccn2c(n1)OC1C(O)C(CCl)OC12 (centres undefined),> 200,0.145 µM,
Nn1c(SCC(=O)O)nc2ccccc2c1=O,> 200,> 200 µM,
O=C(O)c1cccc(OCCOc2cccc(C(=O)O)c2[N+](=O)[O-])c1[N+](=O)[O-],> 200,> 200 µM,
O=S(=O)(Nc1nnc2c3ccccc3ccn12)c1ccc(F)cc1S,214,251 µM,

Compound,EC50 [µM],IC50,outcome
Cc1ccc(/C=C2/Sc3scc(-c4ccccc4)[n+]3C2=O)cc1,> 200,47.9 µM,
C[N+](C)(C)CC(=O)N/N=C(\C(=O)NC1=C(Cl)C(=O)c2ccccc2C1=O)C(C#N)c1csc(-c2ccc([N+](=O)[O-])cc2)n1 (centres undefined),,,inactive
Cc1cc(N(CCC#N)CCC#N)ccc1/C(N=Nc1ccc([N+](=O)[O-])cc1)=N\NC(=O)c1ccccc1,> 200,16.2 µM,
Cc1ccc(-c2c(C#N)c(-c3ccc(N(C)C)cc3)c(C#N)c(=O)n2NS(=O)(=O)c2ccccc2)cc1,> 200,18.2 µM,
CC(=O)OCC1OC(n2c(-c3ccccc3)c(N=Nc3ccc(Cl)cc3)c(C)c(C#N)c2=S)C(OC(C)=O)C(OC(C)=O)C1OC(C)=O (centres undefined),> 200,24.5 µM and 95.5 µM,
COc1ccc(/C=c2/s/c(=C(\C#N)c3nc4ccccc4[nH]3)n(-c3ccccc3)c2=O)cc1,> 200,37.2 µM,
CC1/C(=N/O)CC(c2ccccc2)N(N=O)C1c1ccccc1 (centres undefined),> 200,129 µM,
CC(=O)C(C)(C)CCC(C)(C)C(C)=O,,,inactive
O=C(O)c1ccc2c(c1)C(=O)N(c1ccc(Oc3ccc(N4C(=O)c5ccc(C(=O)O)cc5C4=O)cc3)cc1)C2=O,,,inactive
CC(=O)N1C(=O)/C(=C\C(=O)c2ccc([N+](=O)[O-])cc2)c2ccccc21,> 200,2.82 µM,
O=C(c1ccccc1)N1C(=S)N=C(Nc2ccccc2)C1=Nc1ccccc1,> 200,> 200 µM,
O=C(NNS(=O)(=O)c1ccccc1)c1csc(NC(=S)NC2CCCCC2)n1,> 72.4,28.8 µM,
C=C1C(=O)OC2CC(C)C(C(CC(C)=O)OC(C)=O)=CCC12 (centres undefined),> 324,1.58 µM,
Cc1nc2c(cnn2C)cc1CCc1ccccc1,> 200,33.9 µM,
C1COC(NC(C2CC2)C2CC2)=N1,,,inactive
CN(C)c1nc(=NCc2cccnc2)ss1,> 200,11.5 µM,
CCOC(=O)C(Cc1ccc(O)cc1)NC(=O)C(N)CSSCC(N)C(=O)NC(Cc1ccc(O)cc1)C(=O)OCC (stereo not drawn) (I: H-Cys-Tyr-OEt / II: H-Cys-Tyr-OEt; disulfide I:1-II:1; configuration not given here),> 200,> 200 µM,
C1CN2CCC1C1(C2)SSC2(CN3CCC2CC3)S1 (centres undefined),> 200,> 200 µM,
Cc1[nH]c(=O)[nH]c(=O)c1CO,> 200,105 µM,
NC(=O)c1cccc(N=O)c1,> 200,12.9 µM,
CC(C)C[S+]1C2=C([O-])CC(C)(C)CC2=Nc2ccccc21 (centres undefined),> 200,> 200 µM,
O=S(=O)(O)CN(CS(=O)(=O)O)c1nc(N(CS(=O)(=O)O)CS(=O)(=O)O)nc(N(CS(=O)(=O)O)CS(=O)(=O)O)n1,> 100,15.5 µM,

Compound,EC50 [µM],IC50,outcome
CC(=O)Oc1ccc2c(c1)Cc1cc(N=[N+]([O-])c3ccc4c(c3)Cc3cc(OC(C)=O)ccc3-4)ccc1-2,> 200,> 200 µM,
CC1=N/C(=C\c2ccc(/C=C3/N=C(C)OC3=O)cc2)C(=O)O1,> 851,46.8 µM,
O=C1[C@@H]2C(c3c(Cl)cccc3Cl)=NO[C@@H]2C(=O)N1c1ccc(Cc2ccc(N3C(=O)[C@H]4C(c5c(Cl)cccc5Cl)=NO[C@H]4C3=O)cc2)cc1,> 35.5,> 35.5 µM,
CN(C)c1ccc(C2=C([O-])c3cc(-[n+]4ccccc4)ccc3C2=O)cc1,> 200,178 µM,
COc1ccc(OC)c(NC(=S)N/N=C/c2cccc3ccccc23)c1,> 200,1.05 µM,
Cn1cnc([N+](=O)[O-])c1Sc1nnnn1-c1ccccc1,> 224,10.7 µM,
Nc1ncnc2c1ccn2CC#CCO,> 200,> 200 µM,
O=c1c(Cl)c(Cl)cnn1CCc1ccncc1,> 132,7.08 µM,
CN1C(=O)C(C)(C)C(=O)c2ccccc21,> 200,> 200 µM,
COc1cc2c(cc1OC)C(Cc1ccc(OC)c(OC)c1Oc1ccccc1)N(C)CC2 (centres undefined),,,inactive
Cc1ccccc1NC(=O)NC(Oc1ccccc1)(C(F)(F)F)C(F)(F)F,> 200,> 200 µM,
NC(=S)NNC(=S)NC(=O)c1ccco1,> 200,> 200 µM,
Cc1nn(-c2cc(Cl)ccc2[N+](=O)[O-])c(C)c1Cl,> 200,166 µM,
COC(=O)c1c(C)cc(OC(=O)c2c(C)cc(O)c(C=O)c2O)c(C)c1O,> 151,20.4 µM,
CC(C)CCCCCCCCCCCCC(=O)NCC(=O)NC1C(C)OC(Nc2ncnc3c2ncn3C)C(O)C1O (centres undefined),,,inactive
CC1OC([C@]2(C)O[C@@H]([C@@]3(C)OC=CC3=O)CC2=O)CC1=O (some centres undefined),,,inactive
O=C1c2ccccc2-c2c1c1ccccc1c(=O)n2Cc1ccco1,> 11.5,> 11.5 µM,
CC(C)(O)CCCC1CCC2C3CCC4CCCCC4(C)C3CCC2(C)C1O (centres undefined),> 200,9.33 µM,
COc1ccc(C(C2=C(O)CC(C)OC2=O)C2=C(O)CC(C)OC2=O)cc1 (centres undefined),> 661,427 µM,
COc1cc2oc(-c3ccc(O)cc3)cc(=O)c2c(OC)c1OC,97.7,> 200 µM,
